Measured values taken from paper PMC11480993, “Combining Data-Driven and Structure-Based Approaches in Designing Dual PARP1-BRD4 Inhibitors for Breast Cancer Treatment” (Journal of Chemical Information and Modeling, 2024).
Where two headings read alike, the source gives them in different places.

What was measured:
BRD4 = BRD4 (Homo sapiens, UniProt O60885); assay: BRD TR-FRET assay, BRD4; format: binding
Method: (§1) The assay was performed by TR-FRET technology using a BRD and its corresponding ligand (BET). The TR-FRET signal from the assay is correlated with the amount of ligand binding to the bromodomain. All of the binding reactions were conducted at room temperature. The 20 μL reaction mixture in Assay Buffer contains either bromodomains, BET Ligand, and the indicated amount of inhibitor. For the negative control (blank), 5 μL of the assay buffer was added instead of the BET ligand. The reaction mixture was incubated for 120 min. After the incubation with the ligand, the TR-FRET signal was measured using a Tecan Infinite M1000 plate reader.

BRD2 = BRD2 (Homo sapiens, UniProt P25440); assay: BRD TR-FRET assay, BRD2; format: binding
BRD2, sequence (P25440 whole entry): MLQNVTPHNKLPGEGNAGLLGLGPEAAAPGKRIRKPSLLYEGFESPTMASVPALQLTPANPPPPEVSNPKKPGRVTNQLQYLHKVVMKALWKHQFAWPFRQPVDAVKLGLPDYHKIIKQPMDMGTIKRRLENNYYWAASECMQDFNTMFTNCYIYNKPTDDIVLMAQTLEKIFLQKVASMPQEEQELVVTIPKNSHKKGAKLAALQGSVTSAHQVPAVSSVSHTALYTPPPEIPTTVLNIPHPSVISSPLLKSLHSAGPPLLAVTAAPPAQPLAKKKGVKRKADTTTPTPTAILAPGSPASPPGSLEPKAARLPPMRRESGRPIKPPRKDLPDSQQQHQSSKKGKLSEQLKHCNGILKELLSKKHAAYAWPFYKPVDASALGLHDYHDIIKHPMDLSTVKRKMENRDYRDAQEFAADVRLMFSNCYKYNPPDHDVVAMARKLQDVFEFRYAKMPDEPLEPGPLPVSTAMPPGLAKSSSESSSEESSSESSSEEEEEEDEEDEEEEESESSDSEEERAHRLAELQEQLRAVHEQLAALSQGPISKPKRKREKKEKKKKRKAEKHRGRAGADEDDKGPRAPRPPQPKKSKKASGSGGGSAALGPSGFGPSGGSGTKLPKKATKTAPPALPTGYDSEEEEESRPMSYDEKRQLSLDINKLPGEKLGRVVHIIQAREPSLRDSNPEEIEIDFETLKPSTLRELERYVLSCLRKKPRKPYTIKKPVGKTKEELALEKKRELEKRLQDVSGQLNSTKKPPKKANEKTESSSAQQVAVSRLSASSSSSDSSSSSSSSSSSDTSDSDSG
Method: as §1

BRD3 = BRD3 (Homo sapiens, UniProt Q15059); assay: BRD TR-FRET assay, BRD3; format: binding
BRD3, sequence (Q15059 whole entry): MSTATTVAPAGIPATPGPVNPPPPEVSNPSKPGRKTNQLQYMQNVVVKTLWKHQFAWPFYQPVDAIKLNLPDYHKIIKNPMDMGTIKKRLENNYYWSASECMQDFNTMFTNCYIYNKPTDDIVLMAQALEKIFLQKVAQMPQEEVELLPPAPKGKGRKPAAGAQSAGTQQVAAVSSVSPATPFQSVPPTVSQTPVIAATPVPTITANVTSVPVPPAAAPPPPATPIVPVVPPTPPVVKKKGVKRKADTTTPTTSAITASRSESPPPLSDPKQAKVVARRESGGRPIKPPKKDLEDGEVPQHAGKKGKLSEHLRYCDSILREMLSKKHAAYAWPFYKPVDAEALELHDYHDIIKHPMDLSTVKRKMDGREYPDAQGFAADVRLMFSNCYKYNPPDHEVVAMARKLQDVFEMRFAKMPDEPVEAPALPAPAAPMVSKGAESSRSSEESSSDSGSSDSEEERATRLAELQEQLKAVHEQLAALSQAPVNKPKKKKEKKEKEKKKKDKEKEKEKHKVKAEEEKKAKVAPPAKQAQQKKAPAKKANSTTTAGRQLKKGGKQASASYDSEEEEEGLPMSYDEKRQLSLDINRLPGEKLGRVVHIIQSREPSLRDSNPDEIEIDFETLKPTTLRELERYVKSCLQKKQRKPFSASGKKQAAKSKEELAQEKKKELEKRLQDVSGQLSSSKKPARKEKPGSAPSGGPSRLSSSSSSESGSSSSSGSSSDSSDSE
Method: as §1

MDA-MB-436 cells = assay: Cell viability (MTT), MDA-MB-436; format: cell-based; conditions: Homo sapiens, MDA-MB-436, 96 h; 4-day treatment, BRCA mutant
Method: MDA-MB-231, MDA-MB-436, and MCF-7 cells were seeded into 96-well plates with the number of 5 × 10^3 in each cell and allowed to incubate for 24 h. Subsequently, various concentrations of the test compounds (ranging from 100 to 0.78 μM with twice gradient dilution) were introduced. After 4 days of incubation, MTT solution was applied, and the cells were incubated for an additional 4 h. Following the removal of the supernatant, the violet crystals were dissolved in 200 μL of DMSO, and the absorbance was measured at 570 nm.

MCF-7 cells [1] = assay: Cell cycle detection (PI flow cytometry); format: cell-based; conditions: for cell cycle G0/G1 / cell cycle G2/M / cell cycle S: 24 h
Method: Cell cycle analysis was performed using a PI cell cycle detection kit. Following a 24 h treatment, cells were gathered, fixed with 75% ethanol, and stained with PI according to the manufacturer’s protocol. Subsequently, cell cycle analysis was detected using BD FACSCelesta flow cytometry (New York, USA). The obtained data were then subjected to analysis using FlowJo_V10.

Bcl-2 = assay: Western blot, Bcl-2 in MCF-7 cells; format: cell-based; conditions: MCF-7, 48 h, dose-dependent
Method: (§2) Following a 48 h treatment, cellular proteins were extracted using RIPA cell lysis buffer containing protease and phosphatase inhibitor cocktail. The protein concentration was assessed by using a BCA assay. Subsequently, equal amounts of these proteins were loaded onto an SDS-PAGE gel and transferred onto a PVDF membrane. The protein-loaded membrane was then blocked using a commercial blocking solution (Beyotime, China) and sequentially incubated with primary and secondary antibodies. Protein bands were visualized using an ECL chemiluminescence kit and quantified using ImageJ software.

Rad51 = assay: Western blot, Rad51 in MCF-7 cells; format: cell-based; conditions: MCF-7, 48 h
Method: as §2

MCF-7 cells [2] = assay: Alkaline comet assay; format: cell-based; conditions: 4 and 8 μM, 48 h, MCF-7, compared to control
Method: The Alkaline comet assay was executed in accordance with the manufacturer’s instructions. Following a 48 h treatment period, cells were harvested and combined with low melting point agarose. The resulting mixture was layered onto slides coated with agarose as a normal melting point agarose. Subsequently, the cells on the slides were lysed overnight at 4 °C and then unwound in an alkaline unwinding solution for 30 min at room temperature. Following electrophoresis, the samples were neutralized and stained with propidium iodide. The outcomes were visualized using a confocal microscope (Nikon A1 HD25), with three random images captured from each slide.

## CCc1cc2cc(NS(=O)(=O)c3ccc(F)c(C)c3)ccc2[nH]c1=O [HF4, N-(3-ethyl-2-oxo-1,2-dihydroquinolin-6-yl)-4-fluoro-3-methylbenzenesulfonamide]
BRD4
  IC50: 1.21 ± 0.324 µM
BRD4; pIC50 divided by HAC, HAC = 25
  ligand efficiency index against BRD4: 0.24
BRD4; value of the text
  IC50: 1.2 µM
BRD4; vs PFI-1
  reduction in capacity to inhibit BRD4 relative to PFI-1: around 5 fold
BRD2
  IC50: 6.83 ± 2.2 µM
BRD3
  IC50: 4.79 ± 1.36 µM
MDA-MB-436 cells
  IC50: 4.9 µM
MCF-7 cells [1]
  effect on cell cycle: halted the cell cycle at the G0/G1 phase
MCF-7 cells [1]; 2 μM
  cell cycle G0/G1: 83.0%
  cell cycle G2/M: 0.51%
  cell cycle S: 17.0%
MCF-7 cells [1]; 4 μM
  cell cycle G0/G1: 89.0%
  cell cycle G2/M: 2.96%
  cell cycle S: 9.42%
MCF-7 cells [1]; 8 μM
  cell cycle G0/G1: 92.0%
  cell cycle G2/M: 4.55%
  cell cycle S: 7.63%
Bcl-2
  Bcl-2 expression: significantly downregulated
Rad51
  expression of Rad51: significantly reduced
MCF-7 cells [2]
  DNA damage (comet tail length, percentage of damaged DNA): increase in both tail length and the percentage of damaged DNA
